Tests used:
[1] = test system: serotonergic 3 receptor (5-HT3); conditions: in vitro test (ELSELÈ et al., 1993); cited from earlier work
Swiss mice [2] = experiment: elevated T maze test (inhibitory avoidance and escape from the open arms); format: in vivo; set-up: Escape: unit not given here; conditions: for Escape / Inhibitory avoidances E1 / Inhibitory avoidances E2 / Inhibitory avoidances E3 / Inhibitory avoidances E4 / Inhibitory avoidances LB (basal latency): acute, average ± EPM; for Escape: departure time from open arm; for Inhibitory avoidances E1 / Inhibitory avoidances E2 / Inhibitory avoidances E3 / Inhibitory avoidances E4 / Inhibitory avoidances LB (basal latency): latency, maximum 300 seconds
Method: (§1) Swiss mice weighing 25-35 g from the central animal laboratory of the Sao Paulo State University (UNESP/Araraquara) were used. The animals were housed in groups of 10-12 animals, in polypropylene cages with wood shavings on the floor, with food and water available ad […]]. The animal laboratory was maintained under constant temperature 22±1° C., the lighting was controlled in 12-hour cycles from 7:00 am to 7:00 pm and the humidity was kept at between 50-60%. The pharmacological evaluation was performed with extract, standard drug and vehicle. Accordingly, lyophilized hydroalcoholic extract (50, 100, 200 and 400 mg/kg) was used, in addition to F2 (3, 6, 10, 17 and 30 mg/kg) and the alkaloids erythrartine, erythravine and 11-OH-erythravine (3 and 10 mg/kg), administered via oral intake by gavage. The standard drug used was Diazepam (DZP) in a dose of 2 mg/kg (via intraperitoneal, i.p). All solutions were prepared on the day of the experiment with sodium […] 0.9% and sonicated for 15 minutes and the diazepam in a solution of sodium […] 0.9% and Tween-80. The experiments were carried out between 11:00 am and 5:00 pm, and the experiment apparatus and procedures are described ahead. The elevated T maze is made with transparent glass walls and wooden floor and consists of a closed arm (30×5×15 cm) perpendicularly linked to two open arms (30×5×0.25 cm), raised at 38.5 cm above the floor by a wooden support. In this test, five consecutive measures of inhibitory avoidance were performed (basal latency, avoidances 1, 2, 3 and 4) and one measure of escape from the open arms, with intervals of 30 seconds between each attempt. In the avoidance measures, the animals were placed in the distal section of the closed arm and the exit latency of this arm, on all four paws, towards the open arm was timed. In the escape measure, the animals were placed in the extremity of the right-hand open arm and the departure time from this arm was measured. The animals' maximum length of stay in the arms of the maze during these measures was 300 seconds. The apparatus was cleaned with ethanol 20% after testing each animal. In order to avoid false positives or negatives, immediately after testing in the elevated T maze, the animals were submitted to the locomotive activity test in the arena. The apparatus consists of a white polypropylene box with a rectangular base (40×48 cm), surrounded by 30 cm high walls. The floor is subdivided into 30 squares (8×8 cm). In this test, the animals were placed in the center of the box and their activity was video recorded for five minutes, for subsequent analysis of the number of crossings of the quadrant areas and number of stretch-attend postures (WALSH and CUMMINS, 1976).
(§2) All the results from the animal models were initially submitted to the Levene homogeneity test. The heterogeneous results were converted into a logarithmic scale and later analyzed statistically. The results obtained from the elevated T maze were submitted to a two-way analysis of variance (ANOVA), with treatment being an independent factor and attempts being a dependent factor. […] The results obtained with the arena were submitted to a one-way ANOVA followed by the Duncan post hoc test. Amounts p≦0.05 were considered to be significant results.

Swiss mice [3] = experiment: locomotive activity test in the arena; format: in vivo; conditions: for Crossings / Stretch-attend postures: acute, number in five minutes, average ± EPM
Method: as §1, §2

For CO[C@H]1CC=C2CCN3CCC4=C(CC(=O)OC4)[C@]23C1 [DHBE, dihydro-β-erythroidine], the “action at 5-HT3 receptor” value [1] is listed as “serotonergic 3 antagonist receptor (5-HT3)”.
In the case of COc1cc2c(cc1OC)[C@]13C[C@@H](O)C=CC1=CCN3C[C@H]2O [11-OH-erythravine, 11-hydroxy-erythravine], the Escape (Swiss mice [2]; 3 mg/kg oral by gavage) is reported as 21.5 ± 3.7, the “Inhibitory avoidances E1” value (Swiss mice [2]; 3 mg/kg oral by gavage) is reported as 41.8 ± 14.2 and the “Inhibitory avoidances E2” value (Swiss mice [2]; 3 mg/kg oral by gavage) is reported as 96.0 ± 34.4. The “Inhibitory avoidances E3” value (Swiss mice [2]; 3 mg/kg oral by gavage) was 132.3 ± 39.7, the “Inhibitory avoidances E4” value (Swiss mice [2]; 3 mg/kg oral by gavage) was 194.4 ± 39.5 and the “Inhibitory avoidances LB (basal latency)” value (Swiss mice [2]; 3 mg/kg oral by gavage) was 30.7 ± 5.8. For the same compound, the Escape (Swiss mice [2]; 10 mg/kg oral by gavage) was 26.8 ± 4.8, the “Inhibitory avoidances E1” value (Swiss mice [2]; 10 mg/kg oral by gavage) was 30.0 ± 6.1 and the “Inhibitory avoidances E2” value (Swiss mice [2]; 10 mg/kg oral by gavage) was 54.0 ± 21.1. For the same compound, the “Inhibitory avoidances E3” value (Swiss mice [2]; 10 mg/kg oral by gavage) was 66.6 ± 30.3, the “Inhibitory avoidances E4” value (Swiss mice [2]; 10 mg/kg oral by gavage) was 94.8 ± 31.7 and the “Inhibitory avoidances LB (basal latency)” value (Swiss mice [2]; 10 mg/kg oral by gavage) was 22.6 ± 3.5. For the same compound, the “performance in the inhibitory avoidance task” value (Swiss mice [2]; acute treatment, 3 and 10 mg/kg oral, result in words) was “impaired the performance of the animals in the inhibitory avoidance task”, the Crossings (Swiss mice [3]; 3 mg/kg oral by gavage) was 158.5 ± 7.12 and the Stretch-attend postures (Swiss mice [3]; 3 mg/kg oral by gavage) was 27.7 ± 3.20. For the same compound, the Crossings (Swiss mice [3]; 10 mg/kg oral by gavage) was 126.5 ± 12.71, the Stretch-attend postures (Swiss mice [3]; 10 mg/kg oral by gavage) was 22.4 ± 3.50 and the “locomotive activity (number of crossings and stretch-attend postures)” value (Swiss mice [3]; 3 and 10 mg/kg oral, one-way ANOVA, result in words) was “none of the doses of 11-OH-erythravine used altered the locomotive activity”.
With CN1C(=O)CN=C(c2ccccc2)c2cc(Cl)ccc21 [DZP, Diazepam, reference compound] the Escape (Swiss mice [2]; DZP 2 mg/kg i.p.) was 19.0 ± 3.2, the “Inhibitory avoidances E1” value (Swiss mice [2]; DZP 2 mg/kg i.p.) was 15.3 ± 3.8 and the “Inhibitory avoidances E2” value (Swiss mice [2]; DZP 2 mg/kg i.p.) was 12.25 ± 1.6. The “Inhibitory avoidances E3” value (Swiss mice [2]; DZP 2 mg/kg i.p.) was 22.3 ± 7.7, the “Inhibitory avoidances E4” value (Swiss mice [2]; DZP 2 mg/kg i.p.) was 24.2 ± 7.3 and the “Inhibitory avoidances LB (basal latency)” value (Swiss mice [2]; DZP 2 mg/kg i.p.) was 24.6 ± 4.1. It also gave a Crossings (Swiss mice [3]; DZP 2 mg/kg i.p.) of 154.6 ± 19.48 and a Stretch-attend postures (Swiss mice [3]; DZP 2 mg/kg i.p.) of 19.13 ± 2.03.

From patent US20080255174A1, “Hydroalcoholic Extract Of Erythrina Mulungu, Pharmaceutical Compositions And Processes For Producing These Substances” (priority 2004, published 2008)
